Assay results taken from ChEMBL document CHEMBL3885861, “Open TG-GATES”.

Species on record: Rattus norvegicus
Assay: Open TG-GATES - Regimen: Daily Repeat
Type: toxicity, organism-based, Sprague-Dawley
Parameters: regimen Daily Repeat, gender Male, age 6 weeks
Settings: in vivo, po, 100 mg/kg, […], route gavage, dose level Middle; for KIDNEY_L / KIDNEY_R / KIDNEY_TOTAL: tissue Kidney; for LIVER: tissue Liver; for A/G / ALP / ALT / AST / BUN / CRE / Ca / Cl / DBIL / GLC / IP / K / LDH / Na / PL / RALB / TBIL / TC / TG / TP / gamma-GTP: tissue Plasma

Question: What does the source list for `NNC(=O)c1ccncc1` [ISONIAZID]?
Answer: Lym (tissue Blood, time 28 day): 80.6%; MCH (tissue Blood, time 28 day): 18.6 pg; MCHC (tissue Blood, time 28 day): 33.8%; MCV (tissue Blood, time 28 day): 55 fL; Mono (tissue Blood, time 28 day): 3.6%; Neu (tissue Blood, time 28 day): 14.4%; PT (tissue Blood, time 28 day): 12.2 s; Plat (tissue Blood, time 28 day): 119.2 x10_4/uL; RBC (tissue Blood, time 28 day): 780 x10_4/ul; Ret (tissue Blood, time 28 day): 2.9%; WBC (tissue Blood, time 28 day): 151.6 x10_2/uL; KIDNEY_L (time 7 day): 1.1 g; KIDNEY_R (time 7 day): 1.1 g; KIDNEY_TOTAL (time 7 day): 2.2 g; KIDNEY_L (time 14 day): 1.2 g; KIDNEY_R (time 14 day): 1.2 g; KIDNEY_TOTAL (time 14 day): 2.5 g; KIDNEY_L (time 28 day): 1.4 g; KIDNEY_R (time 28 day): 1.5 g; KIDNEY_TOTAL (time 28 day): 2.9 g; LIVER (time 7 day): 11.5 g; LIVER (time 14 day): 12.7 g; LIVER (time 28 day): 15.3 g; A/G (time 7 day): 1.6; ALP (time 7 day): 823.2 IU/L; ALT (time 7 day): 15.4 IU/L; AST (time 7 day): 56.6 IU/L; BUN (time 7 day): 18.4 mg/dL; CRE (time 7 day): 0.5 mg/dL; Ca (time 7 day): 10.3 mg/dL; Cl (time 7 day): 105.4 meq/L; DBIL (time 7 day): 0.052 mg/dL; GLC (time 7 day): 215.4 mg/dL; IP (time 7 day): 8.4 mg/dL; K (time 7 day): 4.9 meq/L; LDH (time 7 day): 92.2 IU/L; Na (time 7 day): 139.4 meq/L; PL (time 7 day): 134.8 mg/dL; RALB (time 7 day): 3.6 g/dL; TBIL (time 7 day): 0.3 mg/dL; TC (time 7 day): 70.4 mg/dL; TG (time 7 day): 91.6 mg/dL; TP (time 7 day): 5.9 g/dL; gamma-GTP (time 7 day): 1 IU/L; A/G (time 14 day): 1.7; ALP (time 14 day): 722 IU/L; ALT (time 14 day): 11.8 IU/L; AST (time 14 day): 53.4 IU/L; BUN (time 14 day): 19.6 mg/dL; CRE (time 14 day): 0.5 mg/dL; Ca (time 14 day): 10.4 mg/dL; Cl (time 14 day): 106 meq/L; DBIL (time 14 day): 0.04 mg/dL; GLC (time 14 day): 217.2 mg/dL; IP (time 14 day): 8 mg/dL; K (time 14 day): 5.1 meq/L; LDH (time 14 day): 92 IU/L; Na (time 14 day): 138.6 meq/L; PL (time 14 day): 140.4 mg/dL; RALB (time 14 day): 3.8 g/dL; TBIL (time 14 day): 0.4 mg/dL; TC (time 14 day): 70 mg/dL; TG (time 14 day): 94.8 mg/dL; TP (time 14 day): 6.1 g/dL; gamma-GTP (time 14 day): 1 IU/L; A/G (time 28 day): 1.4; ALP (time 28 day): 589.6 IU/L; ALT (time 28 day): 11.6 IU/L; AST (time 28 day): 55.2 IU/L; BUN (time 28 day): 20.2 mg/dL; CRE (time 28 day): 0.5 mg/dL; Ca (time 28 day): 10 mg/dL; Cl (time 28 day): 104.6 meq/L; DBIL (time 28 day): 0.024 mg/dL; GLC (time 28 day): 222.6 mg/dL; IP (time 28 day): 6.9 mg/dL; K (time 28 day): 4.5 meq/L; LDH (time 28 day): 75.8 IU/L; Na (time 28 day): 140.6 meq/L; PL (time 28 day): 141.8 mg/dL; RALB (time 28 day): 3.6 g/dL; TBIL (time 28 day): 0.2 mg/dL; TC (time 28 day): 68.6 mg/dL; TG (time 28 day): 105.4 mg/dL; TP (time 28 day): 6.2 g/dL; gamma-GTP (time 28 day): 1 IU/L
